In patent publication US12303492B2, “Compounds for treating TNBC” (Purdue Pharma L.P., priority 2017, dated 2025):

System: HCC1143 p13 spheroid (TNBC, BL1 subtype, BRCA-1 wt)
Experiment: TNBC spheroid model, residual cell viability by standard ATP assay
Type: cell-based
Details: for mean cell viability: mean of six repeats
Procedure: The activity of EDO-S101 alone and in combination was evaluated in triple negative breast cancer (TNBC) cells lines using a spheroid model.
Heterotypic tumour spheroids were prepared from the individual primary breast cancer tissue. The tumour samples were mechanically and enzymatically digested using an enzyme cocktail (Roche, Penzberg Germany), cell viability determined using the trypan-blue exclusion test, and spheroids seeded at a cell density of 50,000 using a modified liquid overlay method. After 48 h in cell culture under standard conditions, successful spheroid formation was documented photographically before starting treatment.
The spheroids were treated with EDO-S101 (5 μM, 10 μM) alone and in combination with carboplatin and/or the PARP inhibitor olaparib (Table 2) for different periods of time (48, 72 h). Solvent controls and an untreated (medium) control was used under the same culture conditions. Treatment efficacy of all drugs was analysed with a standard ATP assay.
The results are the mean of six repeats per treatment based on the results of the ATP assay.
HCC1143 cells are from the BL1 triple negative breast cancer subtype.

Cn1c(CCCCCCC(=O)NO)nc2cc(N(CCCl)CCCl)ccc21 [EDO-S101, 7-(5-(bis(2-chloroethyl)amino)-1-methyl-1H-benzo[d]imidazol-2-yl)-N-hydroxyheptanamide]
mean cell viability (HCC1143 p13 spheroids, T48 h, EDO S101 5 μM alone or with carboplatin 40.84 μg/ml and/or olaparib 6.6 μg/ml): 85.75 % solvent control
mean cell viability (HCC1143 p13 spheroids, T48 h, EDO S101 10 μM alone or with carboplatin 40.84 μg/ml and/or olaparib 6.6 μg/ml): 57.43 % solvent control
mean cell viability (HCC1143 spheroids, T72 h, EDO S101 5 μM alone or with carboplatin 40.84 μg/ml and/or olaparib 6.6 μg/ml): 79.99 % solvent control
mean cell viability (HCC1143 spheroids, T72 h, EDO S101 10 μM alone or with carboplatin 40.84 μg/ml and/or olaparib 6.6 μg/ml): 77.09 % solvent control
residual cell viability (HCC1143 spheroids, after 48 h, EDO-S101 5 μm (alone or in combination)): 86%
residual cell viability (HCC1143 spheroids, after 48 h, EDO-S101 10 μm): 57%

N.N.O=C([O-])C1(C(=O)[O-])CCC1.[Pt+2] [Carboplatin, reference compound]
mean cell viability (HCC1143 p13 spheroids, T48 h, control agents: carboplatin 40.84 μg/ml, paclitaxel 1.53 μg/ml, olaparib 6.6 μg/ml): 118.28 % solvent control
mean cell viability (HCC1143 spheroids, T72 h, control agents: carboplatin 40.84 μg/ml, paclitaxel 1.53 μg/ml, olaparib 6.6 μg/ml): 105.88 % solvent control

O=C(c1cc(Cc2n[nH]c(=O)c3ccccc23)ccc1F)N1CCN(C(=O)C2CC2)CC1 [Olaparib, reference compound]
residual cell viability (human, 72 h): 62%
